In ChEMBL document CHEMBL1201862, “PubChem BioAssay data set” (2004):
Blank lines part the entries; values can stand above or below the molecule they belong to. The source made the active and inactive calls.

Key:
Cytochrome P450 3A4 = Cytochrome P450 3A4 (Homo sapiens, UniProt P08684);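 also: CYP3A4 tested as one member of a cytochrome P450 panel screen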
P388/ADR = assay: cells; format: functional; settings: Mus musculus
SN12K1 = assay: cells; format: functional; settings: Homo sapiens
P388 = assay: cells; format: functional; settings: Mus musculus
[1] = molecular target: T1, Sentrin-specific protease 6 (Homo sapiens, UniProt Q9GZR1); format: functional;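 also: Luminescence-based dose-response confirmatory assay of SENP6 inhibition, following up an ultra-high-throughput screen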
T1 sequence (Q9GZR1 whole entry): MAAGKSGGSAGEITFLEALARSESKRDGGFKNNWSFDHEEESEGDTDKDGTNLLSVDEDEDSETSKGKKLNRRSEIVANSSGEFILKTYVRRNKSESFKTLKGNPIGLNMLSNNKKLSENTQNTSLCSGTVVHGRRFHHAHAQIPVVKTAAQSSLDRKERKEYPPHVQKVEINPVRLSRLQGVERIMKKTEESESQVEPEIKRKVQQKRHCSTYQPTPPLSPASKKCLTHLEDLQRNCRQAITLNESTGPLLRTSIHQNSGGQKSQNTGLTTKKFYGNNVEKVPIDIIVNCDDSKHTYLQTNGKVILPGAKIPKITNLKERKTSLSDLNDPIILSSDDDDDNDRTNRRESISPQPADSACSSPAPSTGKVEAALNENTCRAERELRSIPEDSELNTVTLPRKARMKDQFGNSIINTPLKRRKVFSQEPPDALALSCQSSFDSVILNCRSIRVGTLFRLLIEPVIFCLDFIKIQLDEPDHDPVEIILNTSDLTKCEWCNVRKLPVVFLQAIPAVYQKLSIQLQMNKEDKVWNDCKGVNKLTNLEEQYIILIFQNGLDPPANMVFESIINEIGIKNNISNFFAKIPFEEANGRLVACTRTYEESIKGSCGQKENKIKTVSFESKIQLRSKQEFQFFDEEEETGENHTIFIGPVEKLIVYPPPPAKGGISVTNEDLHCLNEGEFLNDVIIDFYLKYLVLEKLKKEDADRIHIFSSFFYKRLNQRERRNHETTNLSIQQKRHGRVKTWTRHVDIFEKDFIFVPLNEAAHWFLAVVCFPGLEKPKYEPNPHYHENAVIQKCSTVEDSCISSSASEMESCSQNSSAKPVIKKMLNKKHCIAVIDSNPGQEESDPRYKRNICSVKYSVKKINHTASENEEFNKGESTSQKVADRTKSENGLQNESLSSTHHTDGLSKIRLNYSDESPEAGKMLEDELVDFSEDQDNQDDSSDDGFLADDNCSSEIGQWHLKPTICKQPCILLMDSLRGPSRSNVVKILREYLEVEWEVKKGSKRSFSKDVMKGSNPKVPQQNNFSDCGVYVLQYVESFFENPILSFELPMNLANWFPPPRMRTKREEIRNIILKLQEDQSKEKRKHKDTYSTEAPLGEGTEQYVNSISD

Caspase-3 = molecular target: T2, Caspase-3 (Homo sapiens, UniProt P42574); format: functional;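 also: Dose-response selectivity test against caspase-3 for candidate inhibitors of sentrin-specific proteases (SENPs)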
T2 sequence (P42574 whole entry): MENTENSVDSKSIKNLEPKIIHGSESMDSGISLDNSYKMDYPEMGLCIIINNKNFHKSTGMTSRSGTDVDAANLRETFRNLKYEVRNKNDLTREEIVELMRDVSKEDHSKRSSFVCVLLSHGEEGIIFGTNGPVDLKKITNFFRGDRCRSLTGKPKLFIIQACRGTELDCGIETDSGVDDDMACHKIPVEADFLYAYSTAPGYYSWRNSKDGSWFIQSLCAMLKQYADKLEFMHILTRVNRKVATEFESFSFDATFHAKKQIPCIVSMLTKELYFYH

[2] = molecular target: T3, Sentrin-specific protease 7 (Homo sapiens, UniProt Q9BQF6); format: functional;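 also: Luminescence-based dose-response confirmation of ultra-high-throughput screening hits, measuring inhibition of SENP7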
T3 sequence (Q9BQF6 whole entry): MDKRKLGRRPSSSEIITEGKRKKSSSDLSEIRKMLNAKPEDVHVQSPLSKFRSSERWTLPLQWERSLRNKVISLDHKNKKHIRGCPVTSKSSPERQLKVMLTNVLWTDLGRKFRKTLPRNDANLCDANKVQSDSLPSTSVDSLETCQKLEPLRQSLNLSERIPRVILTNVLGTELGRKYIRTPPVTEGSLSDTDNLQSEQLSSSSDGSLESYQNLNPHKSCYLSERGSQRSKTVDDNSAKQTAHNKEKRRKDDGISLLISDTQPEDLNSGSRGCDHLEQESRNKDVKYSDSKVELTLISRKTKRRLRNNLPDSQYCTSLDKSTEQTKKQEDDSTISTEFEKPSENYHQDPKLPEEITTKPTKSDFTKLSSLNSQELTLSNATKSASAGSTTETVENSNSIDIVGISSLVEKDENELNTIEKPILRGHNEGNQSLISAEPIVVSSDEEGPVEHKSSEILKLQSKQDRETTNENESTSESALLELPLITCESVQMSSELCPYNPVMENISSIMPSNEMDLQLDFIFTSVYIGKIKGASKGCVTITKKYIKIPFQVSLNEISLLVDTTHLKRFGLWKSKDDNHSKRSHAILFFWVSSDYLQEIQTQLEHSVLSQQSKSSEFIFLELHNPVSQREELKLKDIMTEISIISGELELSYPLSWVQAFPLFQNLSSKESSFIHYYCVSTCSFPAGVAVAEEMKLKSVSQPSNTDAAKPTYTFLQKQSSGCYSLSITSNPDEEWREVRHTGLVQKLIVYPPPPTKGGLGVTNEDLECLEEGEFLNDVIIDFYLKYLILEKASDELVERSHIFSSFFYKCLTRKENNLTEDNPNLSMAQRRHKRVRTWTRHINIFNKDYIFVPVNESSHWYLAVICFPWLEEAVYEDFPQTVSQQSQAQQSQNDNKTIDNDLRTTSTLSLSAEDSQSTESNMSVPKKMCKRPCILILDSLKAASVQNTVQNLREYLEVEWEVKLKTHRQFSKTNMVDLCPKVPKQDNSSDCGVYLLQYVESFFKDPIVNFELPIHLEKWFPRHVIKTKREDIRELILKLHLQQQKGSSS

[3] = molecular target: T4, Sentrin-specific protease 8 (Homo sapiens, UniProt Q96LD8); format: functional;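 also: luminescence read-out of SENP8 inhibition, dose-response confirmation following an ultra-high-throughput screen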
T4 sequence (Q96LD8 whole entry): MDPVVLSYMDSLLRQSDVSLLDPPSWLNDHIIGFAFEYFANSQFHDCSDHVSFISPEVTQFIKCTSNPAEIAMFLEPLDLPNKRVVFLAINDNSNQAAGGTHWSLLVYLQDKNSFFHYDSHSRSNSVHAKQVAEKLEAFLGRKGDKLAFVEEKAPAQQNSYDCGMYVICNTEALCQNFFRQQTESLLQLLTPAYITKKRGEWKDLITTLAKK

[4] = molecular target: Ras and Rab interactor 1/Tyrosine-protein kinase ABL1 (Homo sapiens, UniProt P00519+Q13671); format: functional;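 also: biochemical TR-FRET dose-response test measuring inhibition of binding between Rin1 and Abl proteins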
Cytochrome P450 2C19 = Cytochrome P450 2C19 (Homo sapiens, UniProt P33261); assay: Cytochrome panel assay with activity outcomes. Panel member name: p450-cyp2c19 Compounds with AC50 equal or less than 10 uM are considered active; format: functional
Cytochrome P450 2C9 = Cytochrome P450 2C9 (Homo sapiens, UniProt P11712)
Chain of Cytochrome P450 2C9 (P11712 whole entry): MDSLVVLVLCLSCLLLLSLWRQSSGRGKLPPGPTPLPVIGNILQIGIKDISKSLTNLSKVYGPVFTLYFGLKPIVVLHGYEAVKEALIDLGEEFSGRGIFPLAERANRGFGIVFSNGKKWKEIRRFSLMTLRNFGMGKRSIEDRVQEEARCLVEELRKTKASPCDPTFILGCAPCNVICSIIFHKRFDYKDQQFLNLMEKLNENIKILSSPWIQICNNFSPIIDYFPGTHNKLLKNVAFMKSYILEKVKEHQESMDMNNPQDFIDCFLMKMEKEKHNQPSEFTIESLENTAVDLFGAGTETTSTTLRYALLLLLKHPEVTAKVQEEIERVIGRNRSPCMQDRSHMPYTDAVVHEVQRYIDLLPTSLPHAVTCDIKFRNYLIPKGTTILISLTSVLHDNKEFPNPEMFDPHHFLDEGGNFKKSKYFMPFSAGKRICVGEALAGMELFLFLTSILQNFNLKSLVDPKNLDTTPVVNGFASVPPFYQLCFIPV

[5] = molecular target: Peroxisome proliferator-activated receptor gamma/Nuclear receptor coactivator 1 (Homo sapiens, UniProt P37231); assay: (§1) TR-FRET dose response biochemical High Throughput Screening assay for agonists of the steroid receptor coactivator 1 (SRC-1) recruitment by the peroxisome proliferator-activated receptor gamma (PPAR gamma): non-selective agonists. [Related pubchem assays (depositor defined):AID1300, AID1808, AID504735, AID631]; format: protein assay
Chain of Peroxisome proliferator-activated receptor gamma/Nuclear receptor coactivator 1 (P37231 whole entry): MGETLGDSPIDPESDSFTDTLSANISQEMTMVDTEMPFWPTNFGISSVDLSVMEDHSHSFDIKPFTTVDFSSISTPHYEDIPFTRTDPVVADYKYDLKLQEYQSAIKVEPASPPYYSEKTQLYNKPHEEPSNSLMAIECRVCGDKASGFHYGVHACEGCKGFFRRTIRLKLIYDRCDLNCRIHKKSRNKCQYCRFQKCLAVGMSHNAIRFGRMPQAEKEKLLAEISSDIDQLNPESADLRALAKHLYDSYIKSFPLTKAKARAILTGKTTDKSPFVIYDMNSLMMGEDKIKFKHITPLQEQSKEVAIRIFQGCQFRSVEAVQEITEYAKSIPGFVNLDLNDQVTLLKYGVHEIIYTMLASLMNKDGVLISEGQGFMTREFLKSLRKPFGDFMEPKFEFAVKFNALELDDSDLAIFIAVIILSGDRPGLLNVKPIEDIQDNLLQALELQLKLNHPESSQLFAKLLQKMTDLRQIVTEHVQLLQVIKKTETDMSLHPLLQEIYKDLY
Chain of Peroxisome proliferator-activated receptor gamma/Nuclear receptor coactivator 1 (Q15788 whole entry, further chain): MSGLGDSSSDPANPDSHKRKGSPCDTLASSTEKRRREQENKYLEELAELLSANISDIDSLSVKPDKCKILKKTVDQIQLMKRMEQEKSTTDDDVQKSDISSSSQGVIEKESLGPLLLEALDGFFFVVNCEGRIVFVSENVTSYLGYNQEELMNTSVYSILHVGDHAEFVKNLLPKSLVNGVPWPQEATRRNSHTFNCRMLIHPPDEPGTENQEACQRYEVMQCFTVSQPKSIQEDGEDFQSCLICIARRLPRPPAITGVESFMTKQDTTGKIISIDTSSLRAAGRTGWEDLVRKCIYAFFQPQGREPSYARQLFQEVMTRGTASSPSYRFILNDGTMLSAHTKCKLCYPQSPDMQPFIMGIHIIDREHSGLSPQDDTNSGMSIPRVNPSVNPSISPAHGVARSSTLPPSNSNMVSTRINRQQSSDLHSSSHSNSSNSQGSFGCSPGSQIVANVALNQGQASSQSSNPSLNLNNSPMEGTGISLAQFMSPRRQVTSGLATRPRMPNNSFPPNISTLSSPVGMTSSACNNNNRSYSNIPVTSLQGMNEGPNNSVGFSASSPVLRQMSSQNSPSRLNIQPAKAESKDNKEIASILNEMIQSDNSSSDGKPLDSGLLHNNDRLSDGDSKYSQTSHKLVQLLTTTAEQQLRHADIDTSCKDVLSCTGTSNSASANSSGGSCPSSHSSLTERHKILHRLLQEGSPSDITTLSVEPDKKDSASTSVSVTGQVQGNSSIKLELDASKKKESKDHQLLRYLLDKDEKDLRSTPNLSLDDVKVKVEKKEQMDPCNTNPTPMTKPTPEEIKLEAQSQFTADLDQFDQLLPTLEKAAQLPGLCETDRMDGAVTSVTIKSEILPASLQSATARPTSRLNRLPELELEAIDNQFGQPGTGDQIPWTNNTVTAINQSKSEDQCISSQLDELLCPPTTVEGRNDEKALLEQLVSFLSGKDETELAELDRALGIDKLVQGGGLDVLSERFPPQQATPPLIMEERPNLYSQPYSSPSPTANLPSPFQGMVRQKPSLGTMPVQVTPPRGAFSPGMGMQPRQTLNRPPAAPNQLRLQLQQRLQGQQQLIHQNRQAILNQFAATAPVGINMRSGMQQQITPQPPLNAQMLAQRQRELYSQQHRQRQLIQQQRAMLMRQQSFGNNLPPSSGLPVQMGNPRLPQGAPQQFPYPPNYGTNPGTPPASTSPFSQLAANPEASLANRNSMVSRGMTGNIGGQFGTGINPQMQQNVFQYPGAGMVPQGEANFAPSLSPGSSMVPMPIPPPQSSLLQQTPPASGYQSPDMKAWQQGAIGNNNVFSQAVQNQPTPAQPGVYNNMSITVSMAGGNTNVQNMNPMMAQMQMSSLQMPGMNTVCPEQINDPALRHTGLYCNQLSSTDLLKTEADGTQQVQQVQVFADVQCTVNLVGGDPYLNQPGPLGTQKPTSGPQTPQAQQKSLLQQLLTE

[6] = NIH3T3 cell viability loss – ATP luminescence, mouse fibroblasts, counter-screen, dose response (AID 2010); format: functional, cell-based;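 also: cells exposed to compound for about 90 hours before reading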
[7] = Trypanosoma cruzi growth suppression in host cells – NIH3T3 host cells, beta-gal luminescence, confirmation (AID 2044); format: functional, cell-based;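 also: intracellular parasites grown in NIH/3T3 mouse fibroblasts as host cells; luminescent beta-galactosidase reporter signal from transgenic T. cruzi replicating inside host cells; inhibitors lower the luminescence signal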
[8] = molecular target: Peroxisome proliferator-activated receptor gamma/Nuclear receptor coactivator 3 (Homo sapiens, UniProt P37231); assay: as §1, with “3 (SRC-3)” for “1 (SRC-1)”, “assays: 1301 (Confirmation screen.), 1048 (Primary screen.)]” for “assays (depositor defined):AID1300, AID1808, AID504735, AID631]”; format: functional
[9] = molecular target: Peroxisome proliferator-activated receptor gamma/Nuclear receptor coactivator 2 (Homo sapiens, UniProt P37231); assay: TR-FRET dose response biochemical High Throughput Screening assay for agonists of the steroid receptor coactivator 2 (SRC-2) recruitment by the peroxisome proliferator-activated receptor gamma (PPAR gamma): non-selective agonists. [Related pubchem assays: 1297, 1032 ]; format: functional
Chain of Peroxisome proliferator-activated receptor gamma/Nuclear receptor coactivator 2 (P37231 whole entry): as the sequence (P37231 whole entry) above
Chain of Peroxisome proliferator-activated receptor gamma/Nuclear receptor coactivator 2 (Q15596 whole entry, further chain): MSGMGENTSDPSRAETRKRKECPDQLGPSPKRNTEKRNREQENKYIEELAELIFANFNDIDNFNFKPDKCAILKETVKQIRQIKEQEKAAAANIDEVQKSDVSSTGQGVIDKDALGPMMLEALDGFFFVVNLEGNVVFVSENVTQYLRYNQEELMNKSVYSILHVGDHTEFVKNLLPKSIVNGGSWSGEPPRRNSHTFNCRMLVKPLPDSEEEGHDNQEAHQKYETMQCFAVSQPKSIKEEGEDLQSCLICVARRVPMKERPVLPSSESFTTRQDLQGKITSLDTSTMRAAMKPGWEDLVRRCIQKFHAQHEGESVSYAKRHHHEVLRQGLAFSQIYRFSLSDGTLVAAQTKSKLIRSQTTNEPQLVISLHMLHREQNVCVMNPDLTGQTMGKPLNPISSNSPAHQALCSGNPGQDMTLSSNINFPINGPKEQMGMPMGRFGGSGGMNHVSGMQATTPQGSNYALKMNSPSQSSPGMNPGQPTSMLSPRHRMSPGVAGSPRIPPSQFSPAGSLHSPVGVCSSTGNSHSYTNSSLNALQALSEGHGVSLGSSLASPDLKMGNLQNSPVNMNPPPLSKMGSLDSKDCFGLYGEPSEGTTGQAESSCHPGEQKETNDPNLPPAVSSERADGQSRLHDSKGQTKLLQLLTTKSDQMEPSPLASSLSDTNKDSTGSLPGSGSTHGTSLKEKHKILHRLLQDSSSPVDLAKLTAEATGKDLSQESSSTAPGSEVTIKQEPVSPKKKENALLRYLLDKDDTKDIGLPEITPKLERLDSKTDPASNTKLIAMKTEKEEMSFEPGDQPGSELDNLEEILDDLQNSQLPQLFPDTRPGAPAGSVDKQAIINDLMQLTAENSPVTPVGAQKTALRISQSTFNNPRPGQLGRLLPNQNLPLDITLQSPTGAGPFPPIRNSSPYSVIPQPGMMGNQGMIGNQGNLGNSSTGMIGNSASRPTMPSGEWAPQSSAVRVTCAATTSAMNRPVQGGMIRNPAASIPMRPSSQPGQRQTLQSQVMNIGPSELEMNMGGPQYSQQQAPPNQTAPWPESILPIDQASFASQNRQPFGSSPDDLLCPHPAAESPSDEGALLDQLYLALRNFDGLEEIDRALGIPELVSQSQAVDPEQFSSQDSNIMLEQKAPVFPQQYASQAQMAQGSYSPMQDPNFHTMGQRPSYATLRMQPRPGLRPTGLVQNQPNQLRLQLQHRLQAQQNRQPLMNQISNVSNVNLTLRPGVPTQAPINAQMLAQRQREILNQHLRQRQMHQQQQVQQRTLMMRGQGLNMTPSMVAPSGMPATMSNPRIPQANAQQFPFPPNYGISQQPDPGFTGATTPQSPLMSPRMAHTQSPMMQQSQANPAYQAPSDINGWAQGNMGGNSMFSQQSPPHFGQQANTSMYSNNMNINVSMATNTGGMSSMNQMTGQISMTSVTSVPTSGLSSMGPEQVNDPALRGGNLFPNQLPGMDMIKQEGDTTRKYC

Chain of Cytochrome P450 3A4 (P08684 whole entry): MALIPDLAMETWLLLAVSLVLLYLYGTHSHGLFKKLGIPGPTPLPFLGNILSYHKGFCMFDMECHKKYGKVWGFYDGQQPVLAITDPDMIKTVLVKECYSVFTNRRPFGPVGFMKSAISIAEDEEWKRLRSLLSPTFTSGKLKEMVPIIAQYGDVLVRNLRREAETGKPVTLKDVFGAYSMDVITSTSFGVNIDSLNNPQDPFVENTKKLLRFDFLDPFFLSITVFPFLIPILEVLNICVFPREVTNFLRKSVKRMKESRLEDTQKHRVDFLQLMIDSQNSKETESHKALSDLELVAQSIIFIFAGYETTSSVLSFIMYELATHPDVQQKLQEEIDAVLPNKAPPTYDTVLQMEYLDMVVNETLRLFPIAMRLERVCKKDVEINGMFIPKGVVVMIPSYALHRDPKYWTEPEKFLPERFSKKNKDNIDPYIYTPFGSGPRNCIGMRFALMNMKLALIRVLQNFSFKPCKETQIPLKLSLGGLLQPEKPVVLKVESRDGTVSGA

AC50 (Cytochrome P450 3A4): inconclusive
Compound: COc1ccc(C(=O)NC(=S)NCc2ccccc2)cc1

IC50 [1]: 9.3 µM (active)
IC50 (Caspase-3): 26.5 µM (active)
IC50 [2]: 5.5 µM (active)
Compound: O=C(Nc1ccc(Cl)cc1)C1=Cc2ccccc2OC1
IC50 [3]: 10.1 µM (active)

IC50 [4]: 11.8 µM (inactive)
Compound: O=C(O)c1ccc(CSc2nnc(-c3cccnc3)n2-c2ccc(Br)cc2)cc1

IC50 [1]: 28.5 µM (active)
IC50 (Caspase-3): 31.1 µM (active)
IC50 [2]: 8.46 µM (active)
Compound: COc1ccc(-c2csc(NC(=O)c3ccco3)n2)cc1
IC50 [3]: 41.3 µM (active)

Continued, molecule first:

Compound: CC(C)=CC(=O)OC1C2C(C)=CC(O)C(O)C2(C)C2C3(O)OCC24C(CC(=O)OC14)C(C)C3O (stereo not drawn)
GI50 (P388/ADR): 1.97 µM (inactive)
GI50 (SN12K1): 0.0259 µM (active)
GI50 (P388): 0.0125 µM (active)

Compound: N[C@@H](CSCSC[C@H](N)C(=O)O)C(=O)O
GI50 (P388/ADR): > 225 µM (inactive)
GI50 (SN12K1): > 225 µM (inactive)
GI50 (P388): > 71.1 µM (inactive)

Compound: CCCN(CCC)CCc1cccc2c1CC(=O)N2 [ROPINIROLE]
AC50 (Cytochrome P450 2C19): inconclusive
AC50 (Cytochrome P450 3A4): inconclusive
AC50 (Cytochrome P450 2C9): inconclusive

Compound: COc1cccc(-c2nc3ccc([N+](=O)[O-])cc3o2)c1
IC50 [1]: > 100 µM (inactive)
IC50 (Caspase-3): 2.52 µM (active)
IC50 [2]: < 1.55 µM (active)
IC50 [3]: > 100 µM (inactive)

Compound: Cc1cc2cc(CNC(=O)c3cc4ccccc4o3)ccc2n1C
EC50 [5]: 10.6 µM (inactive)
EC50 [6]: > 60 µM (not active)
EC50 [7]: 0.547 µM (active)
EC50 [8]: 19.2 µM (not active)
EC50 [9]: 11.1 µM (not active)
